The record followed here is PMC11359831, “Stepwise Structural Simplification of the Dihydroxyanthraquinone Moiety of a Multitarget Rhein-Based Anti-Alzheimer Lead to Improve Drug Metabolism and Pharmacokinetic Properties” (Pharmaceutics, 2024).

≈ marks a conversion by molar mass, not a printed value.

For series [1] the following is noted: PAMPA-BBB, drugs used for assay validation.
Method: The parallel artificial membrane permeability assay for the blood–brain barrier (PAMPA-BBB) [41] was used to assess the in vitro brain permeability of the new compounds. For the assay, the compounds were dissolved in mixtures of PBS and ethanol (70:30).
Series [2] addresses T1, human recombinant BACE-1 (hBACE-1) (Homo sapiens, UniProt P56817).
T1 construct: purchased Invitrogen, Carlsbad, CA, USA
Nature of the series: In vitro hBACE-1 inhibition (fluorometric method). It is filed as biochemical. Here is the method: The inhibition of human recombinant BACE-1 (hBACE-1) (Invitrogen, Carlsbad, CA, USA) by hybrids 4–7 was evaluated by a fluorometric method. The substrate (Panvera peptide, 10 μL, 250 nM final concentration) was added to a solution (10 μL) of hybrids 4–7 or buffer in control wells (20 mM sodium acetate at pH 4.5, with 0.1% w/v CHAPS). After the addition of the enzyme (10 μL, 12.91 mU), the assay solution was incubated for 1 h at 37 °C. Thereafter, STOP solution (10 μL, 2.5 M sodium acetate) was added and the fluorescence was read at […]. The DMSO concentration in the assay solution was kept <5% (v/v) to ensure no significant loss of BACE-1 activity. The background signal, determined in control wells with all the components of the assay but BACE-1, was subtracted. The fluorescence intensities in the presence of increasing concentrations or in the absence of hybrids 4–7 were compared to calculate the percent of enzyme inhibition produced by the compounds, by applying the following expression: 100 − (IFi/IFo × 100), in which IFi and IFo are the fluorescence intensities in the presence and in the absence of the compounds, respectively. Additionally, the IC50 values were calculated (GraphPad Prism 4.03 software, GraphPad Software Inc., San Diego, CA, USA) and are given as the mean ± SEM of at least two experiments, each performed in triplicate.

Series [3] concerns the target T2, Aβ42 aggregation (Homo sapiens, UniProt P05067).
T2 construct: expressed in transfected cells; host or cells: E. coli BL21 (DE3) bearing pET28a-Aβ42
Nature of the series: Aβ42 aggregation inhibition in genetically modified E. coli cells (Th-S fluorescence). It is filed as cell-based, Escherichia coli. The following applies: live E. coli cells overexpressing Aβ42. As to the method: For Aβ42 overexpression, M9 minimal medium (10 mL) containing kanamycin (50 μg/mL) was added to a colony of E. coli BL21 (DE3) competent cells, bearing the pET28a plasmid (Novagen, Inc., Madison, WI, USA), which contains the DNA sequence encoding for Aβ42. After overnight culture, the volume necessary to obtain a 1:500 dilution was added to fresh M9 minimal medium that contained kanamycin (50 μg/mL) and thioflavin-S (Th-S, 250 µM).
(§1) For Aβ42 overexpression, the corresponding E. coli cell cultures were kept growing overnight (37 °C; 250 rpm) until they reached an OD600 = 0.6. These cultures (980 μL) were added to a mixture of 10 μL of a solution of the new compounds in DMSO and 10 μL of 100 mM isopropyl 1-thio-β-D-galactopyranoside (IPTG), to reach a final compound concentration of 10 μM. The same procedure was used for tau overexpression but employing 10 μL of 25% arabinose instead of IPTG. The resulting E. coli cultures were kept growing overnight (37 °C; 1400 rpm) using an Eppendorf Thermomixer (Hamburg, Germany). To prepare a negative control for the assay, showing the highest amount of the amyloidogenic protein, the same quantity of DMSO, without the compounds to be tested, was added to the sample. With the double purpose of obtaining positive controls devoid of the amyloidogenic proteins and assessing the potential intrinsic toxicity of the new compounds, we also prepared samples that had not been treated with either IPTG or arabinose (non-induced samples).
(§2) To assess the inhibitory activity of compounds 4–7 on Aβ42 and tau aggregation within E. coli cells, a fluorescence assay was employed, using Th-S ([…] stock solution, T1892, Sigma, St. Louis, MO, USA) in double-distilled water (Milli-Q system, Millipore, Bay City, MI, USA) and an Aminco Bowman Series 2 luminescence spectrophotometer (Aminco-Bowman AB2, SLM Aminco, Rochester, NY, USA), working at 25 °C in the wavelength range of 460–600 nm, with λex = 445 nm, slit widths of 4 nm, and λem = 485 nm. The results are given as the average of nine independent experiments, each performed in triplicate.

In series [4] the target is T3, tau aggregation (Homo sapiens, UniProt P10636).
T3 construct: expressed in transfected cells; host or cells: E. coli BL21 (DE3) bearing pTARA and pRKT42
T3 sequence (P10636 other isoform, or with tags, fused parts or gaps): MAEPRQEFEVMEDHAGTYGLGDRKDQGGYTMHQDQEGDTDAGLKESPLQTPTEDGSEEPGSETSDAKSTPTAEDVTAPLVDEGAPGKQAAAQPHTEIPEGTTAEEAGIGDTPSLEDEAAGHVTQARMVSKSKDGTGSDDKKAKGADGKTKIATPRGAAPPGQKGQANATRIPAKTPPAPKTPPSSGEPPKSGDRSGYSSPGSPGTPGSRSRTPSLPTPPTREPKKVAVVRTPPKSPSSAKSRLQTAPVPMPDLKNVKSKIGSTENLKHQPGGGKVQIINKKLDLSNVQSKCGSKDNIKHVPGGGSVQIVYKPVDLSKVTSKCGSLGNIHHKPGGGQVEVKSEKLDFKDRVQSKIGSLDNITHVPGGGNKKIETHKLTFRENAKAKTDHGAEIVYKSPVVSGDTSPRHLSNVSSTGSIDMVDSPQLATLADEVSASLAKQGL
Nature of the series: Tau aggregation inhibition in genetically modified E. coli cells (Th-S fluorescence). It is filed as cell-based, Escherichia coli. The following applies: live E. coli cells overexpressing tau. Here is the method: For tau overexpression, M9 minimal medium (10 mL) containing glucose (0.5%), ampicillin (50 μg/mL), chloramphenicol (12.5 μg/mL), and E. coli BL21 (DE3) cells bearing the pTARA plasmid, which carries the RNA polymerase gene of the T7 phage (T7RP) under control of the PBAD promoter, and subsequent transformation with the pRKT42 vector were used instead. In this case, the overnight culture for a 1:500 dilution was added to fresh M9 minimal medium containing glucose (0.5%), chloramphenicol (12.5 μg/mL), ampicillin (50 μg/mL), and Th-S (250 µM).
as §1, §2

A short description of series [5]: physchem. The following applies: 37 °C, aqueous buffer, kinetic from dmso stock.
Method: The resulting solutions were incubated at 37 °C. After 2 h incubation, the samples were read using a BMG LABTECH NEPHELOstar Plus laser nephelometer (Ortenberg, Germany).

T1 sequence (P56817 46-501): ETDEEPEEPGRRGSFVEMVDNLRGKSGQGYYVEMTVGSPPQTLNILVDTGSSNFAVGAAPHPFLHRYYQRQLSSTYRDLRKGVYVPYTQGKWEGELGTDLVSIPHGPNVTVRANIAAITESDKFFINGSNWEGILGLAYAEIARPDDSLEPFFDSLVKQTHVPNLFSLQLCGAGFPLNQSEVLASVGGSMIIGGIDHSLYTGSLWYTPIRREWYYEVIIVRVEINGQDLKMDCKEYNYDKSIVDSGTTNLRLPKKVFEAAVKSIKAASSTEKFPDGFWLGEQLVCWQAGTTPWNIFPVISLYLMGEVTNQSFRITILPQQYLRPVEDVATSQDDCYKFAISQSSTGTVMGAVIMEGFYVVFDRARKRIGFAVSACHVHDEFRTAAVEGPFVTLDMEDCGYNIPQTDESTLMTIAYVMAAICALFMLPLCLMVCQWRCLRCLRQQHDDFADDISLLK
T2 sequence (P05067 672-713): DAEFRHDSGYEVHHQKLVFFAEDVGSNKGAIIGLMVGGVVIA

Take `CN1C(C(=O)Nc2ccccn2)=C(O)c2ccccc2S1(=O)=O` [Piroxicam, reference compound]: the “Experimental Pe Value” in series [1] was 2.2 ± 0.1 10^−6 cm s^−1.

As usually defined, the IC50 is the concentration at which inhibition is half-maximal. Consider `O=c1c(O)c(-c2cc(O)c(O)c(O)c2)oc2cc(O)cc(O)c12` [Myr, myricetin, reference compound], for which the IC50 in series [2] amounted to 4.18 ± 0.5 µM.

As for `O=C(NCCCCCCCCNc1c2c(nc3cc(Cl)ccc13)CCCC2)c1ccc2nc(-c3ccc(Cl)cc3)c3c(c2c1)NCCC3` [DP128, reference compound], the “Aβ42 Aggregation % inh. @10 µM” value in series [3] amounted to 78.1 ± 1.7%. The “Tau Aggregation % inh. @10 µM” value in series [4] is recorded as 69.9 ± 0.7%.

The term solubility denotes how much of the substance goes into solution per volume. Read a high solubility as much dissolved substance. Molecule `CC(=O)[C@H]1CC[C@H]2[C@@H]3CCC4=CC(=O)CC[C@]4(C)[C@H]3CC[C@]12C` [Progesterone, reference compound] displayed a solubility at 2 h in series [5] (Solubility) of 5.9 µM (≈ 1.86 µg/mL).

The molecule `C[C@H]1O[C@@H](O[C@H]2[C@@H](O)C[C@H](O[C@H]3[C@@H](O)C[C@H](O[C@H]4CC[C@@]5(C)[C@H](CC[C@@H]6[C@@H]5C[C@@H](O)[C@]5(C)[C@@H](C7=CC(=O)OC7)CC[C@]65O)C4)O[C@@H]3C)O[C@@H]2C)C[C@H](O)[C@@H]1O` [digoxin, reference compound] returned a solubility at 2 h in series [5] of 86.3 µM (≈ 67.4 µg/mL).
